From patent US20150299120A1, “Spirohydantoin compounds and their use as selective androgen receptor modulators” (NOVARTIS AG, priority 2012, published 2015)

How the values were obtained:
androgen receptor (AR) = biological target: T1, androgen receptor (AR) (Homo sapiens, UniProt P10275); test: Test 1: androgen receptor transcriptional activation (2XIDR17-luciferase) assay in transfected C2C12 cells; type: cell-based; settings: for Emax: C2C12, C2C12 cells, percentage activity relative to 1 μM DHT, read-out: Biological activity (C2C12 cell) Emax % (converted); for EC50: mouse myoblastic C2C12 cells transfected with full-length AR and 2XIDR17-luciferase, read-out: Biological activity (C2C12 cell) EC50; for % Biological activity (C2C12 cell) 100 nM / % Biological activity (C2C12 cell) 5 μM: C2C12 cells, relative to 1 μM DHT; for % Biological activity (C2C12 cell) 100 nM: compound at 100 nM; for % Biological activity (C2C12 cell) 5 μM: compound at 5 μM
T1 construct: transfecting C2C12 cells with a plasmid containing full-length AR; expressed in transfected cells; host or cells: mouse myoblastic C2C12 cells (ATCC CRL-1772), transiently transfected with AR-FL in pcDNA 3.1(+)
T1 sequence (P10275 1-920): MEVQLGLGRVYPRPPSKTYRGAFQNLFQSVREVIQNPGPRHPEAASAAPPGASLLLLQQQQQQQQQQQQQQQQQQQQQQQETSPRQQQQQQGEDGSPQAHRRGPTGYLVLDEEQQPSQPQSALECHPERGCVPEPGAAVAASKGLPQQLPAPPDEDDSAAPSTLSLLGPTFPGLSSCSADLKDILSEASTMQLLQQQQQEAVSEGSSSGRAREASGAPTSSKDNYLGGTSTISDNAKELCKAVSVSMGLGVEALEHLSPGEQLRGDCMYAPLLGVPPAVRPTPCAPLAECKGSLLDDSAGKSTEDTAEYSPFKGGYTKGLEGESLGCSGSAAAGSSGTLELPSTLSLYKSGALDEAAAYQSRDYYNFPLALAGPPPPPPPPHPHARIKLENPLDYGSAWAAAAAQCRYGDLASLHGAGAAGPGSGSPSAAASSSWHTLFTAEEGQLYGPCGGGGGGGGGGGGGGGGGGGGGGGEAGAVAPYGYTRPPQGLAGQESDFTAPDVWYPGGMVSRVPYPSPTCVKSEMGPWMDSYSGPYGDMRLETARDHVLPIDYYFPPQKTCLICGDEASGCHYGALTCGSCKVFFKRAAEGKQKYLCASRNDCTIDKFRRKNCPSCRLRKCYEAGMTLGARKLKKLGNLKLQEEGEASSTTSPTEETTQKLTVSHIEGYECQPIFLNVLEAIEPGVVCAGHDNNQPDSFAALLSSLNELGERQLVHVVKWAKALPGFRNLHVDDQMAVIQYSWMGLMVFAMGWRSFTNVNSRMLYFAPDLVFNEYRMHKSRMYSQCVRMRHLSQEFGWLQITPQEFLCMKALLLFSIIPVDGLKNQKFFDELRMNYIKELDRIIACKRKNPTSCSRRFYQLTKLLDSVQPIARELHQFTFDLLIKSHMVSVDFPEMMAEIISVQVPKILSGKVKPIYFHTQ
Procedure: A suitable assay to determine the ability of a ligand to transcriptionally activate androgen receptor (AR) is carried out using mouse myoblastic C2C12 cells. The assay involves transfecting C2C12 cells with a plasmid containing full-length AR along with an AR response element linked to luciferase (2XIDR17). The luminescence read-out at the end of the assay is measured using Victor 3 and is a direct measure of the transcriptional activity. The assay has been validated using the reference compound, BMS-564929, for which EC50 values have been reported in a similar set-up.
C2C12 cells were obtained from ATCC (Cat #CRL-1772) and maintained in DMEM modified to contain 4 mM L-glutamine, 4.5 g/L glucose, 1 mM sodium pyruvate and 1.5 g/L sodium bicarbonate and 10% FBS.
AR-FL in pcDNA 3.1(+) and 2XIDR17 in pGL4.26 plasmids prepared using Genelute plasmid miniprep kit from Sigma Cat #PLED35 Steadyglow Luciferase assay system Promega Cat #E2550
• C2C12 cells were seeded in a 96-well plate in DMEM (Dulbecco's Modified Eagle Medium) without phenol red and containing 10% CS-FBS (Charcoal-stripped Fetal Bovine Serum) at 8000 cells/well. • The next day, cells were transfected with an equimolar ratio of (Androgen Receptor-Full length) AR-FL and 2XIDR17-Luciferase at a total plasmid concentration of 200 ng/well using Lipofectamine 2000 following manufacturer's protocol. • For the transfection, 83 ng of AR-FL and 117 ng of 2XIDR17-Luciferase were in 12.5 μl of OptiMEM—Mix A. 0.4 μl of Lipofectamine 2000 was added to 12.5 μl of OptiMEM and incubated for 5 min at room temperature—Mix B. The two mixes A and B were mixed and incubated at room temperature for an additional fifteen minutes. An additional 50 μl of OptiMEM was added, gently mixed and this mixture was added to the cells in the 96-well plate. The above quantities are requirements per well of a 96-well plate. Master mixes were made for the entire plate, with proportional quantity of reagents being used. • 5 h after transfection, compounds were added to the wells in DMEM without phenol red and containing 10% CS-FBS, maintaining a final DMSO concentration of 0.5%. A typical dose response curve starts at 10 μM and includes a 7-point, log dilution, done in triplicates. • After overnight incubation with the compounds, 100 ul of working solution of Steadyglow reagent was added to the wells. • The plates were placed in a shaker for 15 min at the end of which the lysate containing luciferase was transferred to a white flat-bottom plate and read under a luminescence setting in Victor. • Background subtracted counts (Luminescence from DMSO control wells is considered the background) are used to calculate percentage activity, expressed relative to activity with 1 μM (Dihydrotestosterone) DHT (at least two sets of triplicates for 1 μM DHT are included per plate).
The EC50 curves for the compounds for 8 compound concentrations were fitted by the respective function using non-linear least-squares regression in Graphpad Prism 4.0 (Graphpad Software, San Diego, Calif., USA).

SMILES | melting point | Emax (androgen receptor (AR)) | EC50 (androgen receptor (AR)) | % Biological activity (C2C12 cell) 100 nM (androgen receptor (AR)) | % Biological activity (C2C12 cell) 5 μM (androgen receptor (AR))
Cc1c(N2C(=O)N(Cc3ccccn3)C3(CCCC3)C2=O)ccc(C#N)c1Cl [Example 8.4, 2-chloro-4-(2,4-dioxo-1-(pyridin-2-ylmethyl)-1,3-diazaspiro[4.4]nonan-3-yl)-3-methylbenzonitrile] | 179 °C | 96% | 48 nM | – | –
Cc1c(N2C(=O)N(Cc3ccncc3)C3(CCCC3)C2=O)ccc(C#N)c1Cl [Example 8.5, 2-chloro-4-(2,4-dioxo-1-(pyridin-4-ylmethyl)-1,3-diazaspiro[4.4]nonan-3-yl)-3-methylbenzonitrile] | 76 °C | – | 30.7 nM | – | –
Cc1ccc(CN2C(=O)N(c3ccc(C#N)c(Cl)c3C)C(=O)C23CCCC3)cn1 [Example 8.6, 2-chloro-3-methyl-4-(1-((6-methylpyridin-3-yl)methyl)-2,4-dioxo-1,3-diazaspiro[4.4]nonan-3-yl)benzonitrile] | 177 °C | – | 11 nM | – | –
Cc1c(N2C(=O)N(CCOCCF)C3(CCCC3)C2=O)ccc(C#N)c1Cl [Example 9.2, 2-chloro-4-(1-(2-(2-fluoroethoxy)ethyl)-2,4-dioxo-1,3-diazaspiro[4.4]nonan-3-yl)-3-methylbenzonitrile] | 112 °C | 83% | 17.8 ± 6.6 nM | – | –
Cc1c(N2C(=O)N(CC(C)C)C3(CCCC3)C2=O)ccc(C#N)c1Cl [Example 9.5, 2-chloro-4-(1-isobutyl-2,4-dioxo-1,3-diazaspiro[4.4]nonan-3-yl)-3-methylbenzonitrile] | 115 °C | – | – | 11% | 74%
Cc1c(N2C(=O)N(CCO)C3(CCCC3)C2=O)ccc(C#N)c1Cl [Example 9.7, 2-chloro-4-(1-(2-hydroxyethyl)-2,4-dioxo-1,3-diazaspiro[4.4]nonan-3-yl)-3-methylbenzonitrile] | 98 °C | 76% | 199 nM | – | –
Cc1c(N2C(=O)N(CC3CCOC3)C3(CCCC3)C2=O)ccc(C#N)c1Cl (stereo not shown) [Example 11.0, 2-chloro-4-(2,4-dioxo-1-((tetrahydrofuran-3-yl)methyl)-1,3-diazaspiro[4.4]nonan-3-yl)-3-methylbenzonitrile] | 70 °C | – | – | 25% | 48%
Cc1c(N2C(=O)N(C)C3(CCC3)C2=O)ccc(C#N)c1Cl [Example 12.0, 2-chloro-3-methyl-4-(5-methyl-6,8-dioxo-5,7-diazaspiro[3.4]octan-7-yl)benzonitrile] | 133 °C | – | – | 67% | 70%
